What follows are compounds tested on Panel NCI-60 (60 carcinoma cell lines) (assay: In vitro mean of concentrations that inhibits cell growth across 60 cell lines of the NCI panel after incubation for 48 hr at 37 degree C was measured using SRB assay). Settings: Homo sapiens.
Assay type: functional

Going from `COc1cc2c(cc1OC)C(=O)N1CCC[C@H]1C=N2` to `COc1cc2c(cc1OC)C(=O)N1C=CC[C@H]1C=N2`, the GI50 falls from 2.39 µM to 1.28 µM (1.9-fold).

Going from `COc1cc2c(cc1OC)C(=O)N1C=C(c3cccs3)C[C@H]1C=N2` to `COc1cc2c(cc1OC)C(=O)N1C=C(c3ccco3)C[C@H]1C=N2`, the GI50 falls from 0.02 µM to < 0.01 µM.

`COc1cc2c(cc1OC)C(=O)N1C=C(C#Cc3ccccc3)C[C@H]1C=N2` and `COc1cc2c(cc1OC)C(=O)N1C=C(c3ccccc3)C[C@H]1C=N2` cannot be ordered by GI50: < 0.01 µM for the first, < 0.01 µM for the second.

In the case of `C=CC1=CN2C(=O)c3cc(OC)c(OC)cc3N=C[C@@H]2C1`, the GI50 was 0.12 µM.
